By logD is commonly meant lipophilicity at a set pH, counting ionised and neutral species. A word on the EC50: it is the concentration that produces a half-maximal response. As usually defined, the CC50 is the concentration giving 50% cytotoxicity. A word on the IC50: it is the concentration needed to halve the response being measured. In general, half-life refers to the time needed for the level to fall by half in the phase considered.

Molecules are shown by their SMILES. Activity calls are given as the source filed them.

The source of these data is ChEMBL document CHEMBL4007399, “Discovery and Synthesis of a Phosphoramidate Prodrug of a Pyrrolo[2,1-f][triazin-4-amino] Adenine C-Nucleoside (GS-5734) for the Treatment of Ebola and Emerging Viruses” (J Med Chem, 2017).

Data set [1] is described as follows: Lipophilicity, log D of the compound after 30 mins by HPLC/UV method. In kind it is physicochemical.
The subject of data set [2] is Ebolavirus. As to the kind of experiment: Antiviral activity against Ebolavirus Kikwit infected in human HeLa cells assessed as reduction in viral glycoprotein levels preincubated with cells for 2 hrs followed by viral infection measured after 48 hrs by immunostaining based assay. Type of data set: functional, cell-based. The conditions noted are these: Orthoebolavirus, Kikwit, HeLa.

In data set [3] the test system is Ebolavirus. Briefly: Antiviral activity against GFP-fused Ebolavirus infected in TERT-immortalized HMVEC assessed as reduction in viral replication preincubated with cells followed by viral infection measured after 3 to 4 days by fluorescence assay. In kind it is functional.
For a further data set, the system named is Human orthopneumovirus. As to the kind of experiment: Antiviral activity against Respiratory syncytial virus A2 infected in human Hep2 cells assessed as reduction of virus-induced cytopathic effect after 4 days by Cell-Titer Glo assay. Particulars: human respiratory syncytial virus, A2, HEp-2, 96 h. Type of data set: functional, cell-based. (Cytopathic effects are the visible damage that an infection or toxin causes in cultured cells.)

The next data set has as its system Hepatitis C virus. As to the kind of experiment: Antiviral activity against Hepatitis C virus genotype 1b infected in human HuH7 cells preincubated with cells for 3 days followed by viral infection by luciferase assay. In kind it is functional, cell-based, Hepacivirus hominis.
Data set [4] can be described thus: Cytotoxicity against human Hep2 cells assessed as reduction in cell viability after 4 to 5 days by Cell-Titer Glo assay. In kind it is cell-based, HEp-2. Particulars: HEp-2 cells.
The subject of the next data set is Huh-7. Briefly: Cytotoxicity against human HuH7 cells assessed as reduction in cell viability after 3 days by calcein-AM dye based fluorescence assay. Particulars: huh-7, 72 h, 72 h.
Data set [5] can be described thus: Cytotoxicity against human MT4 cells assessed as reduction in cell viability after 4 to 5 days by Cell-Titer Glo assay. In kind it is cell-based. Particulars: MT4 cells.
Data set [6] has as its system Ebolavirus. As to the kind of experiment: Antiviral activity against Ebolavirus Kikwit infected in human macrophages preincubated with cells for 2 hrs followed by viral infection measured after 48 hrs. In kind it is functional. The conditions noted are these: Orthoebolavirus, Kikwit.
The next data set deals with Plasma. As to the kind of experiment: (§1) Half life in human plasma at 2 uM by LC/MS/MS analysis. The conditions noted are these: 2 µM. In kind it is ADME, cell-free.
In data set [7] the test system is Ebolavirus. Briefly: Antiviral activity against Ebolavirus infected in rhesus monkey assessed as reduction in systemic viremia at 3 mg/kg, iv qd administered continuously starting from day 2 post infection for 12 days. In kind it is functional, organism-based.
For data set [8], the system named is Ebolavirus. As to the kind of experiment: Antiviral activity against Ebolavirus infected in rhesus monkey assessed as increase in survival at 10 mg/kg, iv administered daily starting from day 3 post infection followed by 3 mg/kg for 11 days measured up to 28 days. In kind it is functional, organism-based.
In data set [9] the test system is Ebolavirus. Briefly: Antiviral activity against Ebolavirus in phase-1 acute meningoencephalytis patient assessed as viral clearance in plasma at 150 mg, iv qd administered daily for 2 days followed by 225 mg for 14 days. Type of data set: functional, organism-based.
The subject of data set [10] is Ebolavirus. As to the kind of experiment: Antiviral activity against Ebolavirus in phase-1 acute meningoencephalytis patient assessed as viral clearance in CNS at 150 mg, iv qd administered daily for 2 days followed by 225 mg for 14 days. In kind it is functional, organism-based.
Data set [11] concerns Ebolavirus. As to the kind of experiment: Antiviral activity against Ebolavirus infected in newborn infant assessed as viral clearance. In kind it is functional.
Data set [12] can be described thus: Inhibition of Respiratory syncytial virus A2 RNA-dependent-RNA polymerase assessed as reduction in RNP transcriptional activity after 90 mins in presence of [gamma-32P]ATP by agarose gel based phosphorimaging assay. Also noted: species or system Human respiratory syncytial virus A2.
Data set [13] is described as follows: Inhibition of Hepatitis C virus genotype 1b NS5B RNA-dependent-RNA polymerase preincubated for 5 mins followed by [alpha-33P]GTP addition measured after 90 mins by phosphorimaging assay. Set-up: species or system Hepatitis C virus subtype 1b.
The target of data set [14] is T1, DNA-directed RNA polymerase, mitochondrial (Homo sapiens, UniProt O00411). As to the kind of experiment: Inhibition of human mitochondrial RNA polymerase after 30 mins in presence of [33P]GTP.
Data set [15] in a line: Inhibition of RNA polymerase 2 in human HeLa cells preincubated for 5 mins with […] as substrate followed by addition of cell extract measured after 1 hr by SDS-PAGE method.
Data set [16] concerns the target T2, DNA polymerase alpha catalytic subunit (Homo sapiens, UniProt P09884).
T2 sequence (P09884 whole entry): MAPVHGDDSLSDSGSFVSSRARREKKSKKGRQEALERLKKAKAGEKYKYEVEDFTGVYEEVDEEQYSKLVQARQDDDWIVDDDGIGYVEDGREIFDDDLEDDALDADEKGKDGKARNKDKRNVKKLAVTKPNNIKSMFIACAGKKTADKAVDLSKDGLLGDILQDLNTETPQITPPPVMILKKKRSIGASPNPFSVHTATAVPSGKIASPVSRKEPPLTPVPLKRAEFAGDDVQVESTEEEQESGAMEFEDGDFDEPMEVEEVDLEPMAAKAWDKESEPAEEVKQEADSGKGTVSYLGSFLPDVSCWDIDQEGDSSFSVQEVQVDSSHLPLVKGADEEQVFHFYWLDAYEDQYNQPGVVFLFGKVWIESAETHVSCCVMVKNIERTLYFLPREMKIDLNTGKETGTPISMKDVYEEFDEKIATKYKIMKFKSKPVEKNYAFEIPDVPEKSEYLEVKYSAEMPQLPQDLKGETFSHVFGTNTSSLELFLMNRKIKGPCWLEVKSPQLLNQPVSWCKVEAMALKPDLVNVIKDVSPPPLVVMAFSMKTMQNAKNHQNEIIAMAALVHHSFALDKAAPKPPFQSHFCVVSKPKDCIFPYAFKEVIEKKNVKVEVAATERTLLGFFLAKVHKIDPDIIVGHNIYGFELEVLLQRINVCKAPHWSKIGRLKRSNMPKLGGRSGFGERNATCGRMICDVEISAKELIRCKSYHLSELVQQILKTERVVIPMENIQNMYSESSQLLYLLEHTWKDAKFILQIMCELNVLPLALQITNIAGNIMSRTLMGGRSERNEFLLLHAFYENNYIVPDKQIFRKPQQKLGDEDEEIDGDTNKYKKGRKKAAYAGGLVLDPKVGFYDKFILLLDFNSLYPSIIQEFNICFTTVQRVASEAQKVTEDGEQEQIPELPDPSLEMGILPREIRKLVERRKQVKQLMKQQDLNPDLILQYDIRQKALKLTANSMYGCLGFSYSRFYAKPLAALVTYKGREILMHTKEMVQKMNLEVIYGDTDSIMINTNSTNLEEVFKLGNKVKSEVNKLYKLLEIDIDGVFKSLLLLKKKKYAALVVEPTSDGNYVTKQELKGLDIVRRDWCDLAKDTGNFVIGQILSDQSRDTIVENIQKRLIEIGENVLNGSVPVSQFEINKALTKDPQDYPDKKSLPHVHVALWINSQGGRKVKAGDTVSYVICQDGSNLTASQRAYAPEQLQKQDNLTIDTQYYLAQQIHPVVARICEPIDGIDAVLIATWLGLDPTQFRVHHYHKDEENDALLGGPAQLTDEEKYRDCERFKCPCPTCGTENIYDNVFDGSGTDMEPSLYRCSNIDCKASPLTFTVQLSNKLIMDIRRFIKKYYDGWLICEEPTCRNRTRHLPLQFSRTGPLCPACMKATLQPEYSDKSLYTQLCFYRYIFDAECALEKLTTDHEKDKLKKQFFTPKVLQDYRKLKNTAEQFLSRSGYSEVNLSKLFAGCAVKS
As to the kind of experiment: Inhibition of recombinant human DNA polymerase alpha preincubated with enzyme followed by addition of dATP/dGTP/TTP as substrate in presence of […] by phosphorimaging assay.

The target in the next data set is DNA polymerase beta (Homo sapiens, UniProt P06746). As to the kind of experiment: Inhibition of recombinant human DNA polymerase beta preincubated with enzyme followed by addition of dATP/dGTP/TTP as substrate in presence of […] by phosphorimaging assay.
Data set [17] in a line: Inhibition of recombinant human DNA polymerase gamma preincubated with enzyme followed by addition of dATP/dGTP/TTP as substrate in presence of […] by phosphorimaging assay.
The target in data set [18] is T1, DNA-directed RNA polymerase, mitochondrial. Briefly: Inhibition of human mitochondrial RNA polymerase assessed as single nucleotide incorporation rate in presence of 5'-[32P]-R12/D18 as primer/template by PAGE based phosphorimaging assay. Set-up: scale not given: the % may be the effect or the level left.
Data set [19] in a line: Inhibition of recombinant human DNA polymerase gamma assessed as single nucleotide incorporation rate after 5 to 90 mins in presence of [32P]-D19/D36 as primer/template by PAGE based phosphorimaging assay. Set-up: scale not given: the % may be the effect or the level left.
The subject of the next data set is PBMC. As to the kind of experiment: Drug level in rhesus monkey PBMC treated with (S)-2-Ethylbutyl 2-(((S)-(((2R,3S,4R,5R)-5-(4-Aminopyrrolo-[2,1-f][1,2,4]triazin-7-yl)-5-cyano-3,4-dihydroxytetrahydrofuran-2-yl)methoxy)(phenoxy)phosphoryl)amino)propanoate at 10 mg/kg, iv administered as single bolus dose up to 2 hrs. In kind it is ADME, organism-based, Macaca mulatta. Particulars: in vivo.

A short description of data set [20]: Drug level in TERT-immortalized HMVEC treated with (2S)-2-ethylbutyl 2-((((2R,3S,4R,5R)-5-(4-aminopyrrolo[1,2-f][1,2,4]triazin-7-yl)-5-cyano-3,4-dihydroxytetrahydrofuran-2-yl)methoxy)(phenoxy)phosphorylamino)propanoate at 1 uM after 2 to 72 hrs. Type of data set: ADME, cell-based. Particulars: human.
Data set [21] is described as follows: Drug level in human HeLa cells treated with (2S)-2-ethylbutyl 2-((((2R,3S,4R,5R)-5-(4-aminopyrrolo[1,2-f][1,2,4]triazin-7-yl)-5-cyano-3,4-dihydroxytetrahydrofuran-2-yl)methoxy)(phenoxy)phosphorylamino)propanoate at 1 uM after 2 to 72 hrs. Type of data set: ADME, cell-based.
The subject of the next data set is Macrophage. Briefly: Drug level in human macrophages treated with (2S)-2-ethylbutyl 2-((((2R,3S,4R,5R)-5-(4-aminopyrrolo[1,2-f][1,2,4]triazin-7-yl)-5-cyano-3,4-dihydroxytetrahydrofuran-2-yl)methoxy)(phenoxy)phosphorylamino)propanoate at 1 uM after 2 to 72 hrs. Type of data set: ADME, cell-based.
A short description of data set [22]: as §1. Type of data set: ADME, cell-free.

T1 sequence (O00411 whole entry): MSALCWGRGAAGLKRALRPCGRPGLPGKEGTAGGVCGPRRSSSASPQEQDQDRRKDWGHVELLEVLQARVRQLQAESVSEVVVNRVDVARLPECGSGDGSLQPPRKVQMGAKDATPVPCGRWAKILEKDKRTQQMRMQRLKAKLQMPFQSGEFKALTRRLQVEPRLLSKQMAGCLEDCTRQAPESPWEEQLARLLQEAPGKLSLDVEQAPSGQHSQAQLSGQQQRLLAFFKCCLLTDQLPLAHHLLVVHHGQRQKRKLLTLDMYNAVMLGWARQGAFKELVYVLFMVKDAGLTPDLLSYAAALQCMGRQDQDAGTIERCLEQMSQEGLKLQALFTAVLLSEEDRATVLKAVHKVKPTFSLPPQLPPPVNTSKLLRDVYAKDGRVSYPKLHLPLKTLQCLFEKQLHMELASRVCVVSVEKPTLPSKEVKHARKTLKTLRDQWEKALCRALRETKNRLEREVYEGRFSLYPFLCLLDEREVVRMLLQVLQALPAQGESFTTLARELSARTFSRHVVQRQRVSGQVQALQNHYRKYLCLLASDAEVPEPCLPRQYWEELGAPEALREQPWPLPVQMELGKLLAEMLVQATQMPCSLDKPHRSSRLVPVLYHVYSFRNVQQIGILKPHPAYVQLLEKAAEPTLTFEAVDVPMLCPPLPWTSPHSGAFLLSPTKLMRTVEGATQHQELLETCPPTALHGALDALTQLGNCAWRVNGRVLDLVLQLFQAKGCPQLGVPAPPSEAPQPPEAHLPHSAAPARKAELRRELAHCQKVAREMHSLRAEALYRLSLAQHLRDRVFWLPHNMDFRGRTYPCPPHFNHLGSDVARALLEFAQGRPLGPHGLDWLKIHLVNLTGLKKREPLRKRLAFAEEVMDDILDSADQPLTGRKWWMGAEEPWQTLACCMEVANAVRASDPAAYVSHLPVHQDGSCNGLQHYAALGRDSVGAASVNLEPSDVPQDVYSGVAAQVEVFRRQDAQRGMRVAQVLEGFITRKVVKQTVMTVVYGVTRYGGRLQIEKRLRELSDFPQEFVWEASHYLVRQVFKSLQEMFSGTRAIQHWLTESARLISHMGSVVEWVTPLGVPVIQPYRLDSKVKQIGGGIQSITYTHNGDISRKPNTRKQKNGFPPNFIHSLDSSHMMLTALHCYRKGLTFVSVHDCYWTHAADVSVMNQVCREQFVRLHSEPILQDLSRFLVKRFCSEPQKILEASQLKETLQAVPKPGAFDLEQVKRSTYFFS

In [1], `CCC(CC)COC(=O)[C@H](C)N[P@](=O)(OC[C@H]1O[C@@](C#N)(c2ccc3c(N)ncnn23)[C@H](O)[C@@H]1O)Oc1ccccc1` (mixture of isomers) gave a logD at 0.5 h of 2.1. In addition, the EC50 in the data set on Ebolavirus [2] is 170 nM; with Ebolavirus [3], 120 nM; in the data set with Human orthopneumovirus, 27 nM; with Hepatitis C virus, 23 nM; in the data set on Ebolavirus [6], 100 nM. The CC50 in data set [4] is 9200 nM; in the data set on Huh-7, 17000 nM; in data set [5], 2000 nM. In the data set on Plasma, this compound gave a t1/2 of 3.25 h.
Regarding `CCC(CC)COC(=O)[C@H](C)N[P@](=O)(OC[C@H]1O[C@@](C#N)(c2ccc3c(N)ncnn23)[C@H](O)[C@@H]1O)Oc1ccccc1`, the outcome with Ebolavirus [7], in the data set on Ebolavirus [8], in the data set on Ebolavirus [9], with Ebolavirus [10] and with Ebolavirus [11] was Active.
As to `N#C[C@@]1(c2ccc3c(N)ncnn23)O[C@H](COP(=O)(O)OP(=O)(O)OP(=O)(O)O)[C@@H](O)[C@H]1O` [RDV-TP], the IC50 in data set [12] is 1100 nM; in data set [13], 5000 nM; in data set [14] it was greater than 200000 nM; in data set [15], greater than 200000 nM; in [16], greater than 200000 nM; on DNA polymerase beta, greater than 200000 nM. For the same compound, in data set [17], the IC50 was greater than 200000 nM. For the same compound, the Activity in data set [18] came out at 6%; in [19] it was 0%. For the same compound, the Drug metabolism entry (in the data set with PBMC; in data set [20]; in data set [21]; in the data set with Macrophage) was “Metabolite_Detected” throughout.
`CCC(CC)COC(=O)[C@@H](C)NP(=O)(OC[C@H]1O[C@@](C#N)(c2ccc3c(N)ncnn23)[C@H](O)[C@@H]1O)Oc1ccccc1` (stereo not given in full) had a logD at 0.5 h in data set [1] of 2.1. The EC50 turned out to be 550 nM with Ebolavirus [2]; 518 nM with Ebolavirus [3] (Orthoebolavirus, HMVEC); 729 nM in the data set on Ebolavirus [6]. Besides, the CC50 in data set [5] is 42000 nM. The half-life at 2 µM in data set [22] worked out at 26.4 h.
`CC(C)OC(=O)[C@H](C)N[P@@](=O)(OC[C@H]1O[C@@](C#N)(c2ccc3c(N)ncnn23)[C@H](O)[C@@H]1O)Oc1ccccc1` showed a logD at 0.5 h in data set [1] of 1.1. Also, the EC50 was 1840 nM in the data set on Ebolavirus [2]; 367 nM in the data set on Ebolavirus [3] (Orthoebolavirus, HMVEC); 297 nM with Ebolavirus [6]. For the same compound, the cytotoxic concentration (CC50) in data set [5] came out at 21000 nM. The half-life at 2 µM in [22] stood at 26 h.
